Measurements from patent publication US10471139B2, “Toll-like receptor agonists” (The University of Kansas, priority 2013, dated 2019).
Where two headings read alike, the source gives them in different places.

Tests used:
human TLR7 = target: T1, human TLR7 (Homo sapiens, UniProt Q9NYK1); test: Human TLR7 reporter gene assay (NF-κB induction), HEK-Blue-7 cells; assay type: cell-based; settings: for hTLR7-agonistic Activity (EC50): human TLR7-specific reporter gene assay, Inactive = no activity up to 500 μg/mL
T1 construct: expressed in transfected cells; host or cells: HEK293 (HEK-Blue-7)
T1 sequence (Q9NYK1 27-1049): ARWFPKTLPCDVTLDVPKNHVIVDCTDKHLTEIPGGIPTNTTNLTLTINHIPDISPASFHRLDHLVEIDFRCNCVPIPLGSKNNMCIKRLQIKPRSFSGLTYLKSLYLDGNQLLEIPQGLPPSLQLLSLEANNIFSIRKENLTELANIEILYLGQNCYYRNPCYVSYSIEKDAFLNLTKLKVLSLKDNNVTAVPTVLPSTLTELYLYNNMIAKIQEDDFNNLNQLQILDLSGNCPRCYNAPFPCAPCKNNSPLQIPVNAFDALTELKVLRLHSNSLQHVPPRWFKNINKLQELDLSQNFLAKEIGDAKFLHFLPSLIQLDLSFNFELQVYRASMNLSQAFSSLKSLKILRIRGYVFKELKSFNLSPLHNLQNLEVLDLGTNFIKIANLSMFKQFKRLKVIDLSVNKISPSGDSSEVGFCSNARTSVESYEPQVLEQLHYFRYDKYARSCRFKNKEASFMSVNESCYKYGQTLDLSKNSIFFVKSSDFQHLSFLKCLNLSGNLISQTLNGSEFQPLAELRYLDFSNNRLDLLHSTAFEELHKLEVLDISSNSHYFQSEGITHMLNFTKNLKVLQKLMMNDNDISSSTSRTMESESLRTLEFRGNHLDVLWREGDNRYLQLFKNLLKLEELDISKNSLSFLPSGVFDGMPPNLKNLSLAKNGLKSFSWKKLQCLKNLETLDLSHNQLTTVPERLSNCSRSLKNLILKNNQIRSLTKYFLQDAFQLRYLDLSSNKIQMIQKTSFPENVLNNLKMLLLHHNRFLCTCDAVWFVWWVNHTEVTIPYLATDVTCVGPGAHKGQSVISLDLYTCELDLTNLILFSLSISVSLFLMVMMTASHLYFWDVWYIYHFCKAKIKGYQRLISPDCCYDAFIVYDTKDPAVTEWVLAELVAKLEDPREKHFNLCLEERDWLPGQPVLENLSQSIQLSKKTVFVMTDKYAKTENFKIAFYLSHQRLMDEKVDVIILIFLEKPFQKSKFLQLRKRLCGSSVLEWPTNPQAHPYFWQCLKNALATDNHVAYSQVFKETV
Source text: (§1) Human TLR-7/-8 Reporter Gene Assays (NF-κB Induction).
(§2) The induction of NF-κB was quantified using HEK-Blue-7 (hTLR7-specific) and HEK-Blue-8 (hTLR8-specific) cells. HEK293 cells stably co-transfected with human TLR7 or human TLR8, MD2, and secreted alkaline phosphatase (sAP), were maintained in HEK-Blue™ Selection medium containing zeocin and normocin. Stable expression of secreted alkaline phosphatase (sAP) under control of NF-κB/AP-1 promoters is inducible by appropriate TLR agonists, and extracellular sAP in the supernatant is proportional to NF-κB induction.
(§3) HEK293 cells stably co-transfected with the appropriate hTLR (or NOD) and secreted alkaline phosphatase (sAP) were maintained in HEK-Blue™ Selection medium. Stable expression of secreted alkaline phosphatase (sAP) under control of NF-κB/AP-1 promoters is inducible by appropriate TLR/NOD agonists, and extracellular sAP in the supernatant is proportional to NF-κB induction.

human TLR8 = target: T2, human TLR8 (Homo sapiens, UniProt Q9NR97); test: Human TLR8 reporter gene assay (NF-κB induction), HEK-Blue-8 cells; assay type: cell-based
T2 construct: expressed in transfected cells; host or cells: HEK293 (HEK-Blue-8)
T2 sequence (Q9NR97 27-1041): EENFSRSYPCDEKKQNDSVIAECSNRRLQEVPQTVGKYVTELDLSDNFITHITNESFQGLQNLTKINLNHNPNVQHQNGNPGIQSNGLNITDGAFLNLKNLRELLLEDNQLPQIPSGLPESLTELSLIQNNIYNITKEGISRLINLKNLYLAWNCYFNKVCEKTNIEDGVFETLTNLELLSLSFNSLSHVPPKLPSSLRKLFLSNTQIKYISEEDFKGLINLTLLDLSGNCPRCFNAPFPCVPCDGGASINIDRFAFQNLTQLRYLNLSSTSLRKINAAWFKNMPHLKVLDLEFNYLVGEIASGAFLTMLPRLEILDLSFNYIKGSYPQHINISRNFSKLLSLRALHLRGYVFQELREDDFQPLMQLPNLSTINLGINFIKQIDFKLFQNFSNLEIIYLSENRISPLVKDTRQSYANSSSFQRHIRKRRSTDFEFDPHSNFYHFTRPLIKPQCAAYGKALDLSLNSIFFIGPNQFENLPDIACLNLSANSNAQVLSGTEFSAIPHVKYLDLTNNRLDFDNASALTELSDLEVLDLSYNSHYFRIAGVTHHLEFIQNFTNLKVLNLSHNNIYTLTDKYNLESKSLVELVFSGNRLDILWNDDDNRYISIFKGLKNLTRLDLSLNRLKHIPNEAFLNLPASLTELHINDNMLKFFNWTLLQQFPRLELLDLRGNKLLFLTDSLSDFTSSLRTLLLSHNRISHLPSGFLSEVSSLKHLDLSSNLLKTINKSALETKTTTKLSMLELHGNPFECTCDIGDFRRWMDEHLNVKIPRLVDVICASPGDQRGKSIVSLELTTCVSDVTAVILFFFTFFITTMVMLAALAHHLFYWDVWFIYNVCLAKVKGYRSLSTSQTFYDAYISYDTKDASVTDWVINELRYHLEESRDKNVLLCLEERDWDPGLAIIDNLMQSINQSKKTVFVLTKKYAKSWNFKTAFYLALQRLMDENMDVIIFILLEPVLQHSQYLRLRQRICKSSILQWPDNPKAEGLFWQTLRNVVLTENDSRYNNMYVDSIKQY
Source text: as §1, §2, §3

[1] = human TLR 8-specific reporter gene assays
[2] = human TLR 8-specific reporter gene assays, read-out: hTLR8 Agonistic Activity (EC50)
[3] = primary screens, read-out: TLR8-agonistic activity EC50

Q: Which EC50 (human TLR7; primary screen, read-out: TLR7-specific agonistic activity EC50) does the source give for CCCCc1nc2c(N)nc3ccccc3c2n1Cc1ccccc1 [1-benzyl-2-butyl-1H-imidazo[4,5-c]quinolin-4-amine, reference compound] here?
A: The EC50 was 0.06 µM.

Q: With CCCCc1nc2c(NC(C)=O)nccc2n1Cc1ccccc1 [Compound 6a, N-(1-Benzyl-2-butyl-1H-imidazo[4,5-c]pyridin-4-yl)acetamide] as the molecule, how does the “hTLR7-agonistic Activity (EC50)” value (human TLR7) read?
A: Its value is “Inactive^a”.

Q: And the “TLR7-specific agonistic activity EC50” value (human TLR7; primary screen)?
A: Its value is “complete abrogation of activity”.

Q: How did the “hTLR7-agonistic Activity (EC50)” value (human TLR7) turn out when CCCCc1nc2c(NC(=O)CCC)nccc2n1Cc1ccccc1 [Compound 6b, N-(1-Benzyl-2-butyl-1H-imidazo[4,5-c]pyridin-4-yl) butyramide] was run?
A: Its value is “Inactive”.

Q: What about the “TLR7-specific agonistic activity EC50” value (human TLR7; primary screen) of the same molecule?
A: Its value is “complete abrogation of activity”.

Q: With CCCCC1(O)C(N)=Nc2ccccc21 (stereo not shown) [Compound A5, 2-amino-3-butyl-3H-indol-3-ol] as the molecule, how does the “hTLR8 Agonistic Activity (EC50)” value (human TLR8; [1]) read?
A: The value was “Inactive”.

Q: And the “TLR8-agonistic activity EC50” value (human TLR8; primary screens)?
A: The value was “inactive”.

Q: CCCCn1c(N)nc2ccccc21 [Compound A8a, 1-butyl-1H-benz[d]imidazol-2-amine] was tested. Which EC50 (human TLR8; [2]) did it give?
A: Its EC50 is 7.3 µM.

Q: For CCCCCn1c(N)nc2ccccc21 [Compound A8b, 1-Pentyl-1H-benzo[d]imidazol-2-amine], which EC50 (human TLR8; [3]) is on record?
A: Its EC50 is 3.23 µM.

Q: For CCCCCCn1c(N)nc2ccccc21 [Compound A8c, 1-Hexyl-1H-benzo[d]imidazol-2-amine], which EC50 (human TLR8; [2]) is on record?
A: Its EC50 is 3.96 µM.

Q: Nc1nc2ccccc2n1Cc1ccccc1 [Compound A8d, 1-Benzyl-1H-benzo[d]imidazol-2-amine] was tested. Which “hTLR8 Agonistic Activity (EC50)” value (human TLR8; [1]) did it give?
A: Its value is “Inactive”.

Q: How did the “hTLR8 Agonistic Activity (EC50)” value (human TLR8; [1]) turn out when NCc1cccc(Cn2c(N)nc3ccccc32)c1 [Compound A8f, 1-(3-(aminomethyl)benzyl)-1H-benzo[d]imidazol-2-amine] was run?
A: The value was “Inactive”.

Q: Which results are given for CCCCOC(=O)n1c(N)nc2ccccc21 [Compound A9, butyl 2-amino-1H-benzo[d]imidazole-1-carboxylate]?
A: hTLR8 Agonistic Activity (EC50) (human TLR8; [1]): Inactive; TLR8-agonistic activity EC50 (human TLR8; primary screens): completely abrogated activity

Q: For CCCCCn1c(NC(C)=O)nc2ccccc21 [Compound A10, N-(1-pentyl-1H-benzo[d]imidazol-2-yl)acetamide], which “hTLR8 Agonistic Activity (EC50)” value (human TLR8; [1]) is on record?
A: Its value is “Inactive”.

Q: What about the “TLR8-agonistic activity EC50” value (human TLR8; primary screens) of the same molecule?
A: Its value is “completely abrogated activity”.

Q: With CCCCCn1c(N)nc2cc3ccccc3cc21 [Compound A13, 1-Pentyl-1H-naphtho[2,3-d]imidazol-2-amine] as the molecule, how does the “hTLR8 Agonistic Activity (EC50)” value (human TLR8; [1]) read?
A: Its value is “Inactive”.

Q: CCCCCn1c(N)nc2ccc3ccccc3c21 [Compound A18, 1-pentyl-1H-naphtho[1,2-d]imidazol-2-amine] was tested. Which “hTLR8 Agonistic Activity (EC50)” value (human TLR8; [1]) did it give?
A: Its value is “Inactive”.

Q: With CCCCCn1c(N)nc2c3ccccc3ccc21 [Compound A23, 3-Pentyl-3H-naphtho[1,2-d]imidazol-2-amine] as the molecule, how does the EC50 (human TLR8; [3]) read?
A: The EC50 was 3.16 µM.

Q: Which “hTLR8 Agonistic Activity (EC50)” value (human TLR8; [1]) does the source give for CCCCCn1c(N)nc2ncccc21 [Compound A27a, 1-Pentyl-1H-imidazo[4,5-b]pyridin-2-amine] here?
A: The value was “Inactive”.

Q: For CCCCCn1c(N)nc2cnccc21 [Compound A27b, 1-Pentyl-1H-imidazo[4,5-c]pyridin-2-amine], which “hTLR8 Agonistic Activity (EC50)” value (human TLR8; [1]) is on record?
A: Its value is “Inactive”.

Q: How did the “hTLR8 Agonistic Activity (EC50)” value (human TLR8; [1]) turn out when CCCCCn1c(N)nc2ccncc21 [Compound A27c, 3-Pentyl-3H-imidazo[4,5-c]pyridin-2-amine] was run?
A: The value was “Inactive”.

Q: CCCCCn1c(N)nc2cccnc21 [Compound A27d, 3-Pentyl-3H-imidazo[4,5-b]pyridin-2-amine] was tested. Which “hTLR8 Agonistic Activity (EC50)” value (human TLR8; [1]) did it give?
A: The value was “Inactive”.

Q: For CCCCCn1c(N)nc2cc(C)ccc21 [Compound A31b, 5-Methyl-1-pentyl-1H-benzo[d]imidazol-2-amine], which EC50 (human TLR8; [2]) is on record?
A: Its EC50 is 4.57 µM.

Q: For CCCCCn1c(N)nc2ccc(C)cc21 [Compound A31c, 6-Methyl-1-pentyl-1H-benzo[d]imidazol-2-amine], which EC50 (human TLR8; [2]) is on record?
A: Its EC50 is 7.21 µM.

Q: CCCCCn1c(N)nc2cccc(C)c21 [Compound A31d, 7-Methyl-1-pentyl-1H-benzo[d]imidazol-2-amine] was tested. Which EC50 (human TLR8; [2]) did it give?
A: The EC50 was 6.61 µM.

Q: Which EC50 (human TLR8; [3]) does the source give for CCCCCn1c(N)nc2c(OC)cccc21 [Compound A31e, 4-Methoxy-1-pentyl-1H-benzo[d]imidazol-2-amine] here?
A: The EC50 was 3.74 µM.

Q: For CCCCCn1c(N)nc2c(F)cccc21 [Compound A31f, 4-Fluoro-1-pentyl-1H-benzo[d]imidazol-2-amine], which “hTLR8 Agonistic Activity (EC50)” value (human TLR8; [1]) is on record?
A: The value was “Inactive”.

Q: For CCCCCn1c(N)nc2c(Cl)cccc21 [Compound A31g, 4-Chloro-1-pentyl-1H-benzo[d]imidazol-2-amine], which “hTLR8 Agonistic Activity (EC50)” value (human TLR8; [1]) is on record?
A: The value was “Inactive”.

Q: For CCCCCn1c(N)nc2c(C(F)(F)F)cccc21 [Compound A31h, 1-Pentyl-4-(trifluoromethyl)-1H-benzo[d]imidazol-2-amine], which “hTLR8 Agonistic Activity (EC50)” value (human TLR8; [1]) is on record?
A: The value was “Inactive”.

Q: How did the “hTLR8 Agonistic Activity (EC50)” value (human TLR8; [1]) turn out when CCCCCn1c(N)nc2c(Br)cccc21 [Compound A31i, 4-Bromo-1-pentyl-1H-benzo[d]imidazol-2-amine] was run?
A: The value was “Inactive”.

Q: Which EC50 (human TLR8; [2]) does the source give for CCCCCn1c(N)nc2c(CC)cccc21 [Compound A31j, 4-Ethyl-1-pentyl-1H-benzo[d]imidazol-2-amine] here?
A: The EC50 was 1.65 µM.

Q: Which EC50 (human TLR8; [2]) does the source give for CCCCCn1c(N)nc2c(N(C)C)cccc21 [Compound A31k, N^4,N^4-demethyl-1-pentyl-1H-benzo[d]imidazole-2,4-diamine] here?
A: The EC50 was 7.12 µM.

Q: What does the source list for CCCCCn1c(N)nc2c(-c3ccccc3)cccc21 [Compound A31l, 1-pentyl-4-phenyl-1H-benzo[d]imidazol-2-amine]?
A: hTLR8 Agonistic Activity (EC50) (human TLR8; [1]): Inactive; TLR8-agonistic activity EC50 (human TLR8; primary screens): abrogated activity

Q: What does the source list for CCCCCn1c(N)nc2c(Cc3ccccc3)cccc21 [Compound A31m, 4-benzyl-1-pentyl-1H-benzo[d]imidazol-2-amine]?
A: hTLR8 Agonistic Activity (EC50) (human TLR8; [1]): Inactive; TLR8-agonistic activity EC50 (human TLR8; primary screens): abrogated activity

Q: Which results are given for CCCCCn1c(N)nc2c(OCc3ccccc3)cccc21 [Compound A35, 4-Benzyloxy-1-pentyl-1H-benzoimidazol-2-ylamine]?
A: hTLR8 Agonistic Activity (EC50) (human TLR8; [1]): Inactive; TLR8-agonistic activity EC50 (human TLR8; primary screens): abrogated activity

Q: With CCCCCn1c(N)nc2c(O)cccc21 [Compound A36, 2-Amino-1-pentyl-1H-benzoimidazol-4-ol] as the molecule, how does the EC50 (human TLR8; [2]) read?
A: The EC50 was 5.01 µM.

Q: How did the “hTLR8 Agonistic Activity (EC50)” value (human TLR8; [1]) turn out when CCCCCn1c(N)nc2c([N+](=O)[O-])cccc21 [Compound A39, 4-Nitro-1-pentyl-1H-benzoimidazol-2-ylamine] was run?
A: The value was “Inactive”.

Q: What about the “TLR8-agonistic activity EC50” value (human TLR8; primary screens) of the same molecule?
A: Its value is “inactive”.

Q: CCCCCn1c(N)nc2c(N)cccc21 [Compound A40, 1-Pentyl-1H-benzoimidazole-2,4-diamine] was tested. Which EC50 (human TLR8; [2]) did it give?
A: The EC50 was 6.6 µM.
